# According to patent US10245261B2, “Substituted indol-5-ol derivatives and their therapeutic applications” (NantBioScience, Inc., priority 2013, dated 2019):
# Read-outs that look alike come from different tables or passages of the source.
# How the values were obtained:
# FGFR1(h) = FGFR1(h) (Homo sapiens, UniProt P11362); assay: KinaseProfiler kinase assay; type: biochemical
# Summary of the method: (§1)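 Steps: compound diluted from DMSO into MOPS/BSA assay buffer; MgATP mix with [γ-33P]ATP added to start; 40 min incubation at room temperature; phosphoric acid stop; filtermat spotting, washing in 50 mM phosphoric acid and methanol; scintillation counting.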
# Flt3(h) = target: T1, Flt3(h) (Homo sapiens, UniProt P36888); assay: KinaseProfiler kinase assay; type: biochemical
# T1 sequence (P36888 27-993): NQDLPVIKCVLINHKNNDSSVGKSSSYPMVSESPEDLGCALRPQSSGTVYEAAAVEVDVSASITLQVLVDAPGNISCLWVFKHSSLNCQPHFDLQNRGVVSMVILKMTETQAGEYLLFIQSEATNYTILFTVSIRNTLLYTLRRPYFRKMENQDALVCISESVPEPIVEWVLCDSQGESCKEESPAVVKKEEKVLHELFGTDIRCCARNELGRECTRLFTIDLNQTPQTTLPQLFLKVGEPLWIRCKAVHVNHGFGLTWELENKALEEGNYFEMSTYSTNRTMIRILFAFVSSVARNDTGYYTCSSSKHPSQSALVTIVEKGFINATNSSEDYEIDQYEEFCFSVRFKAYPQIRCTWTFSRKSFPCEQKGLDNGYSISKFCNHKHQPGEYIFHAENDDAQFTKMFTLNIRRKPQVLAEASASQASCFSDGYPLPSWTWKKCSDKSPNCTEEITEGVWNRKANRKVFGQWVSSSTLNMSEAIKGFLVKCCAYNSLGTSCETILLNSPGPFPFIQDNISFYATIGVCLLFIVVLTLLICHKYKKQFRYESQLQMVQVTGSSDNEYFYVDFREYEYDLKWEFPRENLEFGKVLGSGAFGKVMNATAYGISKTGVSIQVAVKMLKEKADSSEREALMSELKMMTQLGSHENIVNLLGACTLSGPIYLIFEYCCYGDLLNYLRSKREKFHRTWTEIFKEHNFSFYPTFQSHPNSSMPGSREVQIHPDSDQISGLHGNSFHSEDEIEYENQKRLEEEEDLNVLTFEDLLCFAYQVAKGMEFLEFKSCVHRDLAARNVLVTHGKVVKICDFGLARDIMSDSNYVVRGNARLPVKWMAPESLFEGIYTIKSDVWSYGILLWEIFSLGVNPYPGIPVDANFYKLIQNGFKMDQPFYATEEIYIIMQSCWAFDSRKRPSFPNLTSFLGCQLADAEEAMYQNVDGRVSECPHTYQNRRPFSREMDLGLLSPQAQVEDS
# Summary of the method: as §1
# Ret(h) = Ret(h) (Homo sapiens, UniProt P07949); assay: KinaseProfiler kinase assay; type: biochemical
# Summary of the method: as §1
# FGFR3(h) = FGFR3(h) (Homo sapiens, UniProt P22607); assay: KinaseProfiler kinase assay; type: biochemical
# Flt1(h) = Flt1(h) (Homo sapiens, UniProt P17948); assay: KinaseProfiler kinase assay; type: biochemical
# AN3.CA = assay: CellTiterBlue cell growth inhibition; type: cell-based; details: Homo sapiens, 72 hours
# KU812 = assay: CellTiterBlue cell growth inhibition; type: cell-based; details: Homo sapiens; KU812, 72 hours
# Kato III = assay: CellTiterBlue cell growth inhibition; type: cell-based; details: Homo sapiens, 72 hours
# RS4.11 = assay: CellTiterBlue cell growth inhibition; type: cell-based; details: Homo sapiens; RS4.11, 72 hours
# TT = assay: CellTiterBlue cell growth inhibition; type: cell-based; details: Homo sapiens, 72 hours
# FGFR3(h), sequence (P22607 23-806): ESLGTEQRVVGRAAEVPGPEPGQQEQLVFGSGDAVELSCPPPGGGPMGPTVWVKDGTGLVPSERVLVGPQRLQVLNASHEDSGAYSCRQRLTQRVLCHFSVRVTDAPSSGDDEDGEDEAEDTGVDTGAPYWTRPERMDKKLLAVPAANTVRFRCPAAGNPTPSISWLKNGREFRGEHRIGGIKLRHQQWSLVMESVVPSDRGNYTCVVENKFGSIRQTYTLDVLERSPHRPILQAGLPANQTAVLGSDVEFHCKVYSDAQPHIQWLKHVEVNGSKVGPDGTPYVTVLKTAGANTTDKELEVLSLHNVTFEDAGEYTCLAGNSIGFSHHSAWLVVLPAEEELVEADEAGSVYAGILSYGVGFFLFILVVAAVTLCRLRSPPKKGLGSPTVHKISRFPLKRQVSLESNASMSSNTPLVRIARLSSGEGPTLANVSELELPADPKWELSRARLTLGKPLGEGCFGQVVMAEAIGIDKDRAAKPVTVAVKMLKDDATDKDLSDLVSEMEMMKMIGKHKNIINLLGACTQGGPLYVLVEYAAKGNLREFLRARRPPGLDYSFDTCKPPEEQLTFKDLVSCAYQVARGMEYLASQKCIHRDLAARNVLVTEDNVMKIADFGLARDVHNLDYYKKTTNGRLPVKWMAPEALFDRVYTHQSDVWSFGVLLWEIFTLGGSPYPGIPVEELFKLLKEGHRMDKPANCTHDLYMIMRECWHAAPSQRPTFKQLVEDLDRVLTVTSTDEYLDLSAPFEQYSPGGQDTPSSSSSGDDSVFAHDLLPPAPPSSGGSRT
# FGFR1(h), sequence (P11362 22-822): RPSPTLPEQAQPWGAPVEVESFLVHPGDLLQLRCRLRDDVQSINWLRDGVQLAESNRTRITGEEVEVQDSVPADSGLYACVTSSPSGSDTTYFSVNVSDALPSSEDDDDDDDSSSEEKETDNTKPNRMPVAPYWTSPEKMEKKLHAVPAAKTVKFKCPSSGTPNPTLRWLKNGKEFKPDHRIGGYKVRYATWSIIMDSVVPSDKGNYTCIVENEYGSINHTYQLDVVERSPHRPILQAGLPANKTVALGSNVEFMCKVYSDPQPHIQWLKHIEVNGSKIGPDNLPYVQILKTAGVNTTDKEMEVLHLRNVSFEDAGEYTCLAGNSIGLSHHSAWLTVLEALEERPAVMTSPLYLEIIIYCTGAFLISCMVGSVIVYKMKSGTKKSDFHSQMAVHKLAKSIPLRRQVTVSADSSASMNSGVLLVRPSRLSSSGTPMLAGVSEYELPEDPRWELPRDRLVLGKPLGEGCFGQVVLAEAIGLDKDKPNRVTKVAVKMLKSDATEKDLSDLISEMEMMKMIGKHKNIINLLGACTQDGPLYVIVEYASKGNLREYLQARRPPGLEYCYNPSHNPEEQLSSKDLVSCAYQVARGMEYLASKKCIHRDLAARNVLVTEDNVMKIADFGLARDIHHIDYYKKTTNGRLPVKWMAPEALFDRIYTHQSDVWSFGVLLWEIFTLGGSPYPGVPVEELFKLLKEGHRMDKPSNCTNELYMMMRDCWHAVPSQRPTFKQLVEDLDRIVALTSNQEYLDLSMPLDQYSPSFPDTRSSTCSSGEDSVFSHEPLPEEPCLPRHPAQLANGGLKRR
# Flt1(h), sequence (P17948 27-1338): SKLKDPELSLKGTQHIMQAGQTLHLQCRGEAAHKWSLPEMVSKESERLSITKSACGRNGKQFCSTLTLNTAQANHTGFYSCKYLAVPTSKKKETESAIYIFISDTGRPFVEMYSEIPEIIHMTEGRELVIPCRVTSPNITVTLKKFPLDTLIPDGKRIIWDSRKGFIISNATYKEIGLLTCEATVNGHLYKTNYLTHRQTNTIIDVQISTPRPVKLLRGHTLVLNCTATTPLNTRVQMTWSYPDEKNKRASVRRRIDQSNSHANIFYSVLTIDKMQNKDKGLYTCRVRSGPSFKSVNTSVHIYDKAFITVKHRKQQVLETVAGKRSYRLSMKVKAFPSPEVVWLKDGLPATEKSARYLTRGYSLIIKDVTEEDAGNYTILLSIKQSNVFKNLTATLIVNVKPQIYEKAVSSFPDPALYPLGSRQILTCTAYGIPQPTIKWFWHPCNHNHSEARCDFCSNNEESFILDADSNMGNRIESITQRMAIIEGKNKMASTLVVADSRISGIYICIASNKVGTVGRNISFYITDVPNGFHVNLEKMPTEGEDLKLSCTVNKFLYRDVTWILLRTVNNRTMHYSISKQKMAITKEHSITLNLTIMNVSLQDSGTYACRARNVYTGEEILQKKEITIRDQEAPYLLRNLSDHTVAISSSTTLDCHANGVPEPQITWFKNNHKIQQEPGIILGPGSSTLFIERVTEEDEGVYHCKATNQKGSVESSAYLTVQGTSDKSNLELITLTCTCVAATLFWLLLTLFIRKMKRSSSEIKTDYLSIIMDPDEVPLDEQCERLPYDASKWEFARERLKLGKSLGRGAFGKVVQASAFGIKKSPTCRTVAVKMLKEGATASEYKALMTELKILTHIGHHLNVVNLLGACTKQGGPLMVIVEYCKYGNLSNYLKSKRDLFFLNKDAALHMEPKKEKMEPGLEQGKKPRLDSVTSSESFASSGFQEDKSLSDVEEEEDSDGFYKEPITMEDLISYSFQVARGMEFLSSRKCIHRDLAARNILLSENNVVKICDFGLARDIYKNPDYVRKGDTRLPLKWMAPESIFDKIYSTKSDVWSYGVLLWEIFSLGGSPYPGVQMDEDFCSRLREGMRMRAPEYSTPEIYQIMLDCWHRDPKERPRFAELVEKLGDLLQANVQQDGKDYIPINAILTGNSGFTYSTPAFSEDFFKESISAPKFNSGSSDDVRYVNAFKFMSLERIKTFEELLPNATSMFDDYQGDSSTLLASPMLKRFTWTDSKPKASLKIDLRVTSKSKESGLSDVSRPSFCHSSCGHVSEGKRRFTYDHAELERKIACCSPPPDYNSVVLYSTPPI
# Ret(h), sequence (P07949 29-1114): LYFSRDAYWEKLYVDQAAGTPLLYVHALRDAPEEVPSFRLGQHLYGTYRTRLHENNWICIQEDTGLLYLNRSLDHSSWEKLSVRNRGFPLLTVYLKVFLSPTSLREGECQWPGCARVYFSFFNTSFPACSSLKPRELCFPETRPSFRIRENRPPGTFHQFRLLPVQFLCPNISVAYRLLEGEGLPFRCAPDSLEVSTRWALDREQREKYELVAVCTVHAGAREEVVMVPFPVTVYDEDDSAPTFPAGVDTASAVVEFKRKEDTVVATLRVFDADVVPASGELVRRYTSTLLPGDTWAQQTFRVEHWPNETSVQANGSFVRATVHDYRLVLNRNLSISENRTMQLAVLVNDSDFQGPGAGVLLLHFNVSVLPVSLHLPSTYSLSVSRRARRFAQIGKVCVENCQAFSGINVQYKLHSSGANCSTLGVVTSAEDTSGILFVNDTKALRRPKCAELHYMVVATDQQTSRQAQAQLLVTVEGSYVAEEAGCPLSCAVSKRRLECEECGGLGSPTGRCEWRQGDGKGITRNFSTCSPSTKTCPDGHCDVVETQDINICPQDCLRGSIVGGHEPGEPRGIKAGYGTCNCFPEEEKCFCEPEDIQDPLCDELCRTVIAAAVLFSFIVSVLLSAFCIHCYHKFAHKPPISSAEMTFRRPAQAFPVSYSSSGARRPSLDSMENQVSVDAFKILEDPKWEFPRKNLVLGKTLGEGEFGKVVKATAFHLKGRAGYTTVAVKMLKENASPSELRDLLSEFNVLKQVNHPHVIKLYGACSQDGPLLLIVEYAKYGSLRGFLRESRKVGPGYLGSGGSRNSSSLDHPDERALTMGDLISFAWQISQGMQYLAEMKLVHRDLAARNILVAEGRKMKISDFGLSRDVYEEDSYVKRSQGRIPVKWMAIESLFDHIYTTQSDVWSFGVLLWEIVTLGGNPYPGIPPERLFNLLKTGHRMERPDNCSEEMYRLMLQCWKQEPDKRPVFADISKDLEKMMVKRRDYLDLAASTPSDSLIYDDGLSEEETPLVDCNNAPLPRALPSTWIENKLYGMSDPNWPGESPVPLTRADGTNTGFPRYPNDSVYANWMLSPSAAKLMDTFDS
Compound,inhibition at 0.1 µM (FGFR1(h)),IC50 (FGFR1(h); read-out: IC50 (nM) FGFR1 (h)),inhibition at 0.1 µM (Flt3(h)),inhibition at 1 µM (Flt3(h)),IC50 (Flt3(h); read-out: IC50 (nM) Flt3 (h)),inhibition at 0.1 µM (Ret(h)),inhibition at 1 µM (Ret(h)),inhibition at 0.1 µM (FGFR3(h)),inhibition at 0.1 µM (Flt1(h)),GI50 (AN3.CA),GI50 (KU812),GI50 (Kato III),GI50 (RS4.11),GI50 (TT),"IC50 (FGFR1(h); FGFR1, read-out: IC50)","IC50 (Flt3(h); Flt3, read-out: IC50)","IC50 (Ret(h); Ret, read-out: IC50)",IC50 (FGFR3(h); FGFR3),IC50 (Flt1(h); VEGFR1),IC50 (Ret(h); read-out: IC50 (nM) Ret (h))
Cc1cc2c(F)c(Oc3nc(Nc4cc(C5CC5)[nH]n4)cc(N4CCN(C)CC4)n3)ccc2[nH]1 [Compound 10],100%,1 nM,101%,100%,11 nM,102%,101%,100%,100%,3 nM,< 0.025 nM,0.07 nM,3.22 nM,8.3 nM,,,,,,
C/C=C/c1cc(Nc2cc(N3CCNCC3)nc(Oc3ccc4[nH]c(C)cc4c3F)n2)n[nH]1 [Compound 68],,0.6 nM,,100%,4 nM,,99%,,,0.88 nM,,,,1.9 nM,,,,,,
C/C=C/c1cc(Nc2cc(N3CCN(CCO)CC3)nc(Oc3cc(F)c4[nH]c(C)cc4c3F)n2)n[nH]1 [Compound 88],,0.2 nM,,100%,8 nM,,99%,,,0.31 nM,0.71 nM,0.06 nM,3.71 nM,3.4 nM,,,,,,
C/C=C/c1cc(Nc2cc(N3CCN(C)CC3)nc(Oc3ccc4[nH]c(C)cc4c3F)n2)n[nH]1 [Compound 53],,,,99%,,,98%,,,0.78 nM,0.24 nM,0.06 nM,11 nM,3.5 nM,0.5 nM,13 nM,2 nM,1 nM,3 nM,
"Cc1cc2c(F)c(Oc3nc(Nc4cc(C5CC5)[nH]n4)cc(N4CCNCC4)n3)ccc2[nH]1 [Compound 11, N-(5-cyclopropyl-1H-pyrazol-3-yl)-2-((4-fluoro-2-methyl-1H-indol-5-yl)oxy)-6-(piperazin-1-yl)pyrimidin-4-amine]",100%,0.5 nM,98%,100%,12 nM,100%,101%,101%,100%,,1.61 nM,,3.16 nM,,,,,,,
Cc1cc2c(F)c(Oc3nc(Nc4cc(C5CC5)[nH]n4)cc(N4CCNCC4)n3)cc(F)c2[nH]1 [Compound 82],,0.6 nM,,100%,6 nM,,100%,,,,0.75 nM,,2.65 nM,,,,,,,1 nM
